Broadly, the IC50 is the concentration at which inhibition is half-maximal. A lower IC50 goes with greater potency.

Drawing on patent publication US12281122B1, “PI3K inhibitors” (Cogent Biosciences, Inc., priority 2023, dated 2025), this text covers IC50 for 18 compounds.

Test [1] has as its system T47D (PI3Kα-H1047R) cell line. The test can be described thus: HTRF phospho-AKT(S473) cell assay in T47D cells. The test is classed as cell-based, human. The note with it: Homo sapiens, 2 hours compound incubation. In a few lines: (§1)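 T47D: RPMI + 10% FBS + 0.2 units/mL insulin, top 5 μM. SKBR3: McCoy's 5A + 10% FBS, top 10 μM, 70 ng/ml PDGF-BB last 15 min. Both: 12-pt 1:3, 2 h, 37° C, max 0.5% DMSO; HTRF pAKT(S473); IC50.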

Test [2] deals with SKBR3 (PI3Kα-Wild Type) cell line. The test is described as follows: HTRF phospho-AKT(S473) cell assay in SKBR3 cells. It counts as cell-based, human. The note with it: Homo sapiens, SK-BR-3, 2 hours compound incubation, PDGF-BB stimulated. In a few lines: as §1
Where [3] appears, read: HTRF phospho-AKT(S473), T47D (PI3Kα-H1047R) cells.
Where [4] appears, read: HTRF phospho-AKT(S473), SKBR3 (PI3Kα-Wild Type) cells.
The mark [5] stands for this setting: T47D (PI3Kα-H1047R) cells, HTRF phospho-AKT(S473).
The mark [6] stands for this setting: SKBR3 (PI3Kα-Wild Type) cells, HTRF phospho-AKT(S473).

With `Cc1cc([C@@H](C)Nc2ccc(Cl)nc2C(=O)NS(C)(=O)=O)c2nc(N3C[C@@H]4[C@H](C3)[C@H]4c3cnn(C4CC4)n3)n(C)c(=O)c2c1` [Compound 559, 6-chloro-3-(((R)-1-(2-((1R,5S,6R)-6-(2-cyclopropyl-2H-1,2,3-triazol-4-yl)-3-azabicyclo[3.1.0]hexan-3-yl)-3,6-dimethyl-4-oxo-3,4-dihydroquinazolin-8-yl)ethyl)amino)-N-(methylsulfonyl) picolinamide], the values for the half-maximal inhibitory concentration (IC50) in test [1] (setting [3]) and in test [2] (setting [4]) were 250 to 500 nM and at least 5 µM, respectively.

For `Cc1cc([C@@H](C)Nc2ccc(Cl)nc2C(=O)NS(C)(=O)=O)c2nc(N3Cc4nccnc4C3)n(C)c(=O)c2c1` [Compound 534, (R)-6-chloro-3-((1-(2-(5,7-dihydro-6H-pyrrolo[3,4-b]pyrazin-6-yl)-3,6-dimethyl-4-oxo-3,4-dihydroquinazolin-8-yl)ethyl)amino)-N-(methylsulfonyl) picolinamide], the IC50 is below 250 nM in test [1] (setting [3]) and 1 to 5 µM in test [2] (setting [4]).

Regarding `Cc1cc([C@@H](C)Nc2ccc(Cl)nc2C(=O)NS(C)(=O)=O)c2nc(N3CCc4cn(CC(F)(F)F)nc4C3)n(C)c(=O)c2c1` [Compound 214, (R)-6-chloro-3-((1-(3,6-dimethyl-4-oxo-2-(2-(2,2,2-trifluoroethyl)-2,4,5,7-tetrahydro-6H-pyrazolo[3,4-c]pyridin-6-yl)-3,4-dihydroquinazolin-8-yl)ethyl)amino)-N-(methylsulfonyl) picolinamide], the half-maximal inhibitory concentration (IC50) in test [1] (setting [5]) was below 250 nM; in test [2] (setting [6]), 1 to 5 µM.

Regarding `CCn1c(N2CCC(c3nn(C)cc3F)CC2)nc2c([C@@H](C)Nc3ccc(Cl)nc3C(=O)NS(C)(=O)=O)cc(C)cc2c1=O` [Compound 433, (R)-6-chloro-3-((1-(3-ethyl-2-(4-(4-fluoro-1-methyl-1H-pyrazol-3-yl)piperidin-1-yl)-6-methyl-4-oxo-3,4-dihydroquinazolin-8-yl)ethyl)amino)-N-(methylsulfonyl) picolinamide], the IC50 in test [1] (setting [5]) was below 250 nM; in test [2] (setting [6]), at least 5 µM.

As for `Cc1cc([C@@H](C)Nc2ccc(Cl)nc2C(=O)NS(C)(=O)=O)c2nc(N3C[C@H]4CC(n5cc(C)cn5)C[C@@H]4C3)n(C)c(=O)c2c1` (single isomer, unassigned) [Compound 676, 6-chloro-3-(((R)-1-(3,6-dimethyl-2-((3aS*,6aS*)-5-(4-methyl-1H-pyrazol-1-yl)hexahydrocyclopenta [c]pyrrol-2(1H)-yl)-4-oxo-3,4-dihydroquinazolin-8-yl)ethyl)amino)-N-(methylsulfonyl) picolinamide], the IC50 was 250 to 500 nM in test [1] (setting [3]) and at least 5 µM in test [2] (setting [4]).

In the case of `Cc1cc([C@@H](C)Nc2ccc(Cl)nc2C(=O)NS(C)(=O)=O)c2nc(N3C[C@@H]4[C@H](C3)[C@H]4c3ccc(C)nn3)n(C)c(=O)c2c1` [Compound 441, 6-chloro-3-(((R)-1-(3,6-dimethyl-2-((1R,5S,6R)-6-(6-methylpyridazin-3-yl)-3-azabicyclo [3.1.0]hexan-3-yl)-4-oxo-3,4-dihydroquinazolin-8-yl)ethyl)amino)-N-(methylsulfonyl) picolinamide], the IC50 in test [1] (setting [3]) is below 250 nM; in test [2] (setting [4]), 1 to 5 µM.

Take `Cc1cc([C@@H](C)Nc2ccc(Cl)nc2C(=O)NS(C)(=O)=O)c2nc([C@H]3[C@@H]4CN(c5ccc(C)nc5)C[C@@H]43)n(C)c(=O)c2c1` [Compound 829, 6-chloro-3-(((R)-1-(3,6-dimethyl-2-((1R,5S,6r)-3-(6-methylpyridin-3-yl)-3-azabicyclo[3.1.0]hexan-6-yl)-4-oxo-3,4-dihydroquinazolin-8-yl)ethyl)amino)-N-(methylsulfonyl) picolinamide]: the IC50 in test [1] (setting [3]) is 250 to 500 nM; in test [2] (setting [4]), at least 5 µM.

For `COc1ccc(N2C[C@H]3C[C@@H]2CN3c2nc3c([C@@H](C)Nc4ccc(Cl)nc4C(=O)NS(C)(=O)=O)cc(C)cc3c(=O)n2C)cn1` [Compound 638, 6-chloro-3-(((R)-1-(2-((1R,4R)-5-(6-methoxypyridin-3-yl)-2,5-diazabicyclo [2.2.1]heptan-2-yl)-3,6-dimethyl-4-oxo-3,4-dihydroquinazolin-8-yl)ethyl)amino)-N-(methylsulfonyl) picolinamide], the IC50 in test [1] (setting [3]) is 250 to 500 nM; in test [2] (setting [4]), at least 5 µM.

For the compound `Cc1cc([C@@H](C)Nc2ccc(Cl)nc2C(=O)NS(C)(=O)=O)c2nc(N3CC[C@@H](Oc4ccc(F)cc4)C3)n(C)c(=O)c2c1` (relative stereo) [Compound 236, 6-chloro-3-(((R)-1-(2-((R*)-3-(4-fluorophenoxy)pyrrolidin-1-yl)-3,6-dimethyl-4-oxo-3,4-dihydroquinazolin-8-yl)ethyl)amino)-N-(methylsulfonyl) picolinamide], the IC50 in test [1] (setting [5]) fell in the range of 250 to 500 nM; in test [2] (setting [6]), 1 to 5 µM.

On to `Cc1cc([C@@H](C)Nc2ccc(Cl)nc2C(=O)NS(C)(=O)=O)c2nc(-c3ccc(-c4ncc(C#N)cc4C)c(F)c3)n(C)c(=O)c2c1` [Compound 799, (R)-6-chloro-3-((1-(2-(4-(5-cyano-3-methylpyridin-2-yl)-3-fluorophenyl)-3,6-dimethyl-4-oxo-3,4-dihydroquinazolin-8-yl)ethyl)amino)-N-(methylsulfonyl) picolinamide], for which the half-inhibitory concentration (IC50) is 250 to 500 nM in test [1] (setting [3]) and at least 5 µM in test [2] (setting [4]).

Take `Cc1cc([C@@H](C)Nc2ccc(Cl)nc2C(=O)NS(C)(=O)=O)c2nc(-c3ccc4nc(C)oc4c3)n(C)c(=O)c2c1` [Compound 789, (R)-6-chloro-3-((1-(3,6-dimethyl-2-(2-methylbenzo[d]oxazol-6-yl)-4-oxo-3,4-dihydroquinazolin-8-yl)ethyl)amino)-N-(methylsulfonyl) picolinamide]: the values for the IC50 in test [1] (setting [3]) and in test [2] (setting [4]) were below 250 nM and 1 to 5 µM, respectively.

Consider `Cc1cc([C@@H](C)Nc2ccc(Cl)nc2C(=O)NS(C)(=O)=O)c2nc(N3C[C@H]4C[C@@H]3C[C@@H]4c3nn(C)cc3F)n(C)c(=O)c2c1` (relative stereo) [Compound 443, 6-chloro-3-(((R)-1-(2-((1R*,4S*,5S*)-5-(4-fluoro-1-methyl-1H-pyrazol-3-yl)-2-azabicyclo[2.2.1]heptan-2-yl)-3,6-dimethyl-4-oxo-3,4-dihydroquinazolin-8-yl)ethyl)amino)-N-(methylsulfonyl) picolinamide], for which the IC50 in test [1] (setting [3]) was 250 to 500 nM; in test [2] (setting [4]), 1 to 5 µM.

For `Cc1cc([C@@H](C)Nc2ccc(Cl)nc2C(=O)NS(C)(=O)=O)c2nc(N3C[C@@H]4[C@H](C3)[C@H]4n3cc(C(F)(F)F)cn3)n(C)c(=O)c2c1` [Compound 741, 6-chloro-3-(((R)-1-(3,6-dimethyl-4-oxo-2-((1R,5S,6S)-6-(4-(trifluoromethyl)-1H-pyrazol-1-yl)-3-azabicyclo[3.1.0]hexan-3-yl)-3,4-dihydroquinazolin-8-yl)ethyl)amino)-N-(methylsulfonyl) picolinamide], the IC50 is 500 to 1000 nM in test [1] (setting [3]) and at least 5 µM in test [2] (setting [4]).

Turning to `Cc1cc([C@@H](C)Nc2ccc(Cl)nc2C(=O)NS(C)(=O)=O)c2nc(N3CCC(c4nc(C)n(C(F)F)n4)CC3)n(C)c(=O)c2c1` [Compound 723, (R)-6-chloro-3-((1-(2-(4-(1-(difluoromethyl)-5-methyl-1H-1,2,4-triazol-3-yl)piperidin-1-yl)-3,6-dimethyl-4-oxo-3,4-dihydroquinazolin-8-yl)ethyl)amino)-N-(methylsulfonyl) picolinamide], the IC50 was in the range of 250 to 500 nM in test [1] (setting [3]) and 1 to 5 µM in test [2] (setting [4]).

In the case of `Cc1cc([C@@H](C)Nc2ccc(Cl)nc2C(=O)NS(C)(=O)=O)c2nc(N3C[C@@H]4C[C@H]3CN4c3cnn(C)c3)n(C)c(=O)c2c1` [Compound 201, 6-chloro-3-(((R)-1-(3,6-dimethyl-2-((1S,4S)-5-(1-methyl-1H-pyrazol-4-yl)-2,5-diazabicyclo[2.2.1]heptan-2-yl)-4-oxo-3,4-dihydroquinazolin-8-yl)ethyl)amino)-N-(methylsulfonyl) picolinamide], the IC50 was below 250 nM in test [1] (setting [5]) and 1 to 5 µM in test [2] (setting [6]).

`Cc1cc([C@@H](C)Nc2ccc(Cl)nc2C(=O)NS(C)(=O)=O)c2nc(N3CC[C@H](Oc4ccc(C)nn4)C3)n(C)c(=O)c2c1` [Compound 527, 6-chloro-3-(((R)-1-(3,6-dimethyl-2-((S)-3-((6-methylpyridazin-3-yl)oxy)pyrrolidin-1-yl)-4-oxo-3,4-dihydroquinazolin-8-yl)ethyl)amino)-N-(methylsulfonyl) picolinamide]: the results for the half-maximal inhibitory concentration (IC50) in test [1] (setting [3]) and in test [2] (setting [4]) were below 250 nM and 1 to 5 µM, respectively.

For the compound `Cc1cc([C@@H](C)Nc2ccc(Cl)nc2C(=O)NS(C)(=O)=O)c2nc(N3C[C@@H]4[C@H](C3)[C@H]4c3ccc(N(C)C)nc3)n(C)c(=O)c2c1` [Compound 393, 6-chloro-3-(((R)-1-(2-((1R,5S,6S)-6-(6-(dimethylamino)pyridin-3-yl)-3-azabicyclo[3.1.0]hexan-3-yl)-3,6-dimethyl-4-oxo-3,4-dihydroquinazolin-8-yl)ethyl)amino)-N-(methylsulfonyl) picolinamide], the IC50 in test [1] (setting [5]) is 250 to 500 nM; in test [2] (setting [6]), at least 5 µM.

Consider `COc1ncc(-c2nc3c([C@@H](C)Nc4ccc(Cl)nc4C(=O)NS(C)(=O)=O)cc(C)cc3c(=O)n2C)cn1` [Compound 856, (R)-6-chloro-3-((1-(2-(2-methoxypyrimidin-5-yl)-3,6-dimethyl-4-oxo-3,4-dihydroquinazolin-8-yl)ethyl)amino)-N-(methylsulfonyl) picolinamide], for which the half-inhibitory concentration (IC50) in test [1] (T47D (PI3Kα-H1047R) cell line, phospho-AKT(S473) HTRF) was 250 to 500 nM; in test [2] (SKBR3 (PI3Kα-Wild Type) cell line, phospho-AKT(S473) HTRF), at least 5 µM.
